# Read-outs that look alike come from different tables or passages of the source.
# Key:
# [1] = tested on: gli-luciferase activity (Hh pathway) in TMHh12 cells; test: "IC50 shift" gli-luciferase reporter assay in TMHh12 cells with a small molecule Smo agonist; format: cell-based, mouse
# Protocol: TM3 cells (mouse) transfected with a new proprietary reporter construct (pTA-8xGli-Luc). The pTA-8xGli-Luc reporter produces approx. 4 fold more luciferase activity than classical 8xGli-LUC. A highly responsive stable clone has been selected (TMHh12) with >10-fold signal/noise ratio and <10% CV in 384 well format.
# “IC50 shift” assays in TMHh12 cells. IC50 for antagonism of gli-luciferase activity was tested in the presence of increasing concentrations of a small molecule agonist which binds to Smo with 1 nM affinity and activates the Hh pathway.
# Table 1 lists the IC50 of antagonists determined in the presence of different (1 nM and 25 nM) concentrations of a small agonist of Smoothened.
# [2] = target: Smoothened (Homo sapiens, UniProt Q99835); test: Smo binding assay, displacement of a small molecule agonist of Smoothened, filter binding format
# Chain of Smoothened (Q99835 28-787): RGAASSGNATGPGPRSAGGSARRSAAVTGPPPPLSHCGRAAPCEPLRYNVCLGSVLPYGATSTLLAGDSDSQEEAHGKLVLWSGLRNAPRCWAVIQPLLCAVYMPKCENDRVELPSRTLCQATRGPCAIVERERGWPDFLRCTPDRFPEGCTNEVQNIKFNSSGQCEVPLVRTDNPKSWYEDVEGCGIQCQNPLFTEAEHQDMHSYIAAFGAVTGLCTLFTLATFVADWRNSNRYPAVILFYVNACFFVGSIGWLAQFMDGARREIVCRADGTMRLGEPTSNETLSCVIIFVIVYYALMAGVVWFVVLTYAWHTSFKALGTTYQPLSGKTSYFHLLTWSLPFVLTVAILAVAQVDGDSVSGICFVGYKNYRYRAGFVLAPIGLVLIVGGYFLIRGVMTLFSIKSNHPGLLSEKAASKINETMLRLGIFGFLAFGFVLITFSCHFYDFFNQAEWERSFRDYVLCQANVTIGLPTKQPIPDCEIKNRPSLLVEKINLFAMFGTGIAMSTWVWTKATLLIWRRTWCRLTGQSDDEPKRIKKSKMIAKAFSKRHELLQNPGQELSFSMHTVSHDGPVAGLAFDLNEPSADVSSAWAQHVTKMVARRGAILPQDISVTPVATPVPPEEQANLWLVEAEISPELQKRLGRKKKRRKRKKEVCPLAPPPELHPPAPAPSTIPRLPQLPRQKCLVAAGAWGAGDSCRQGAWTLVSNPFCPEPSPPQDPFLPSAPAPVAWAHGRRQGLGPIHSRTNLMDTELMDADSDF
# Description: A Smo binding assay was developed using radio-labeled smoothened agonist for compound competition.
# Table 1, infra; lists the IC50 for displacement of a small molecule agonist of Smoothened determined in a filter binding format.
# [3] = Mus musculus, TMHh12, TMHh12 cells, 1 nM small molecule Smo agonist, read-out: Gli_luc (1 nM Smo agonist) IC50
# [4] = Mus musculus, TMHh12, TMHh12 cells, 25 nM small molecule Smo agonist, read-out: Gli_luc (25 nM Smo agonist) IC50
SMILES,"IC50 [1, 3]",IC50 [2],"IC50 [1, 4]","IC50 ([1]; TMHh12 cells, 1 nM small molecule Smo agonist, read-out: Gli_luc (1 nM Smo agonist) IC50)","IC50 ([1]; TMHh12 cells, 25 nM small molecule Smo agonist, read-out: Gli_luc (25 nM Smo agonist) IC50)"
Cc1cccc(C(=O)Nc2ccc3c(c2)C[C@@H](NCc2ccc4c(c2)CCO4)C3)c1-c1ccc(C(F)(F)F)cc1 [Example 31],281 nM,28 nM,3040 nM,,
Cc1cccc(C(=O)Nc2ccc3c(c2)C[C@@H](NCc2ccc(Cl)s2)C3)c1-c1ccc(C(F)(F)F)cc1 [Example 26],35 nM,8 nM,458 nM,,
O=C(Nc1ccc2c(c1)CC(NCc1ccccn1)C2)c1cccc(C(F)(F)F)c1-c1ccc(C(F)(F)F)cc1 (centres unmarked) [Example 47],,,,1570 nM,5960 nM
Cc1cccc(C(=O)Nc2ccc3c(c2)CC(NCc2cccn2C)C3)c1-c1ccc(C(F)(F)F)cc1 (centres unmarked) [Example 59],112 nM,21 nM,3490 nM,,
Cc1cccc(C(=O)Nc2ccc3c(c2)C[C@@H](NCc2cccnc2Cl)C3)c1-c1ccc(C(F)(F)F)cc1 [Example 30],136 nM,39 nM,1440 nM,,
Cc1cccc(C(=O)Nc2ccc3c(c2)C[C@@H](NCc2cnc4ccccc4c2)C3)c1-c1ccc(C(F)(F)F)cc1 [Example 29],1670 nM,490 nM,4920 nM,,
Cc1cccc(C(=O)Nc2ccc3c(c2)C[C@@H](NCc2scnc2C)C3)c1-c1ccc(C(F)(F)F)cc1 [Example 10],290 nM,137 nM,1340 nM,,
COc1ccc(OC)c(CN[C@H]2Cc3ccc(NC(=O)c4cccc(C)c4-c4ccc(C(F)(F)F)cc4)cc3C2)c1 [Example 21],254 nM,1 nM,646 nM,,
Cc1cccc(C(=O)Nc2ccc3c(c2)CC(NCc2ccccn2)C3)c1-c1ccc(C(F)(F)F)cc1 (centres unmarked) [Example 45],85 nM,141 nM,1140 nM,,
O=C(Nc1ccc2c(c1)CC(NCc1ccccn1)C2)c1cccc(C(F)(F)F)c1-c1ccc(C(F)(F)F)cc1 (centres unmarked) [Example 37],2980 nM,,11000 nM,,
Cc1cccc(C(=O)Nc2ccc3c(c2)C[C@@H](NCc2ccc(-n4ccnc4)cc2)C3)c1-c1ccc(C(F)(F)F)cc1 [Example 28],12 nM,2 nM,481 nM,,
Cc1cccc(C(=O)Nc2ccc3c(c2)C[C@H](NCc2ccccc2)C3)c1-c1ccc(C(F)(F)F)cc1 [Example 27],12 nM,,605 nM,,
Cc1cccc(C(=O)Nc2ccc3c(c2)C[C@@H](NCc2ncc[nH]2)C3)c1-c1ccc(C(F)(F)F)cc1 [Example 17],1370 nM,,15500 nM,,
COC(=O)C1(CNC2Cc3ccc(NC(=O)c4ccccc4-c4ccc(C(F)(F)F)cc4)cc3C2)CCCC1 (centres unmarked) [Example 42],2580 nM,,,,
Cc1cccc(C(=O)Nc2ccc3c(c2)C[C@@H](NCC2CCOC2)C3)c1-c1ccc(C(F)(F)F)cc1 (some centres unmarked) [Example 33],4530 nM,,16400 nM,,
Cc1cccc(C(=O)Nc2ccc3c(c2)CC(NCc2cccs2)C3)c1-c1ccc(C(F)(F)F)cc1 (centres unmarked) [Example 52],40 nM,,598 nM,,
Cc1cccc(C(=O)Nc2ccc3c(c2)CC(NCc2ccccc2)C3)c1-c1ccc(C(F)(F)F)cc1 (centres unmarked) [Example 55],91 nM,,995 nM,,
Cc1cc(C)c(-c2ccc(C(F)(F)F)cc2)c(C(=O)Nc2ccc3c(c2)CC(NCc2ccsc2)C3)c1 (centres unmarked) [Example 35],,208 nM,,,
O=C(Nc1ccc2c(c1)CCC2NCc1cccs1)c1ccccc1-c1ccc(C(F)(F)F)cc1 (centres unmarked) [Example 39],686 nM,,3720 nM,,
Cc1cccc(C(=O)Nc2ccc3c(c2)C[C@@H](NCc2cncn2C)C3)c1-c1ccc(C(F)(F)F)cc1 [Example 16],592 nM,,3700 nM,,
Cc1cccc(C(=O)Nc2ccc3c(c2)C[C@@H](NCc2nccn2C)C3)c1-c1ccc(C(F)(F)F)cc1 [Example 18],39 nM,,876 nM,,
O=C(Nc1ccc2c(c1)C[C@@H](NCc1ccccn1)C2)c1cccc(C(F)(F)F)c1-c1ccc(C(F)(F)F)cc1 [Example 46],831 nM,,3850 nM,,
Cc1nc(CN[C@H]2Cc3ccc(NC(=O)c4cccc(C)c4-c4ccc(C(F)(F)F)cc4)cc3C2)cs1 [Example 9],39 nM,,876 nM,,

# Now from value to molecule:
"IC50 [1, 3]",IC50 [2],"IC50 [1, 4]","IC50 ([1]; TMHh12 cells, 1 nM small molecule Smo agonist, read-out: Gli_luc (1 nM Smo agonist) IC50)","IC50 ([1]; TMHh12 cells, 25 nM small molecule Smo agonist, read-out: Gli_luc (25 nM Smo agonist) IC50)",SMILES
1900 nM,217 nM,,,,CCCCS(=O)(=O)NC1Cc2ccc(NC(=O)c3cccc(C)c3-c3ccc(C(F)(F)F)cc3)cc2C1 (centres unmarked) [Example 102]
19 nM,47 nM,557 nM,,,"Cc1cccc(C(=O)Nc2ccc3c(c2)C[C@@H](Nc2ccccc2)C3)c1-c1ccc(C(F)(F)F)cc1 [Example 74, 6-Methyl-4′-trifluoromethyl-biphenyl-2-carboxylic acid ((S)-2-phenylamino-indan-5-yl)-amide]"
48 nM,135 nM,1310 nM,,,Cc1cccc(C(=O)Nc2ccc3c(c2)CC(NCc2ccc(-c4ccc(Cl)cc4)o2)C3)c1-c1ccc(C(F)(F)F)cc1 (centres unmarked) [Example 64]
686 nM,493 nM,14000 nM,,,Cc1cccc(C(=O)Nc2ccc3c(c2)CC(NCc2ccoc2)C3)c1-c1ccc(C(F)(F)F)cc1 (centres unmarked) [Example 63]
,265 nM,,,,CCCCS(=O)(=O)NC1Cc2ccc(NC(=O)c3cccc(C)c3-c3ccc(C(F)(F)F)cc3)cc2C1 (centres unmarked) [Example 86]
5960 nM,330 nM,,,,Cc1cccc(C(=O)Nc2ccc3c(c2)CCC(NS(=O)(=O)c2ccccc2F)CC3)c1-c1ccc(C(F)(F)F)cc1 (centres unmarked) [Example 106]
6630 nM,,,,,Cc1cccc(C(=O)Nc2ccc3c(c2)CC(NS(=O)(=O)c2cccs2)C3)c1-c1ccc(F)cc1 (centres unmarked) [Example 94]
4780 nM,3200 nM,10200 nM,,,Cc1cccc(C(=O)Nc2ccc3c(c2)CCC(NS(C)(=O)=O)CC3)c1-c1ccc(C(F)(F)F)cc1 (centres unmarked) [Example 103]
5 nM,11 nM,235 nM,,,Cc1cccc(C(=O)Nc2ccc3c(c2)CC(NCc2ccccc2F)C3)c1-c1ccc(C(F)(F)F)cc1 (centres unmarked) [Example 71]
1420 nM,,,,,Cc1cccc(C(=O)Nc2ccc3c(c2)CC(NS(=O)(=O)c2cccs2)C3)c1-c1ccc(C(F)(F)F)cc1 (centres unmarked) [Example 95]
5440 nM,,,,,O=C(Nc1ccc2c(c1)CC(NS(=O)(=O)c1cccs1)C2)c1ccc(F)cc1-c1ccc(C(F)(F)F)cc1 (centres unmarked) [Example 90]
38 nM,,667 nM,,,Cc1cccc(C(=O)Nc2ccc3c(c2)CC(NCc2nccs2)C3)c1-c1ccc(C(F)(F)F)cc1 (centres unmarked) [Example 72]
1890 nM,,,,,O=C(COc1ccccc1)NC1Cc2ccc(NC(=O)c3ccccc3-c3ccc(C(F)(F)F)cc3)cc2C1 (centres unmarked) [Example 78]
,12 nM,,,,Cc1cccc(C(=O)Nc2ccc3c(c2)CC(NS(=O)(=O)c2ccc(Cl)s2)C3)c1-c1ccc(C(F)(F)F)cc1 (centres unmarked) [Example 85]
1360 nM,,,,,O=C(Nc1ccc2c(c1)CC(NS(=O)(=O)c1cccs1)C2)c1c(F)cccc1-c1ccc(C(F)(F)F)cc1 (centres unmarked) [Example 97]
324 nM,,24400 nM,,,Cc1cccc(C(=O)Nc2ccc3c(c2)CC(NS(=O)(=O)c2ccc(Cl)cc2)C3)c1-c1ccc(C(F)(F)F)cc1 (centres unmarked) [Example 98]
3390 nM,,,,,CCCS(=O)(=O)NC1Cc2ccc(NC(=O)c3cccc(C)c3-c3ccc(C(F)(F)F)cc3)cc2C1 (centres unmarked) [Example 93]
715 nM,,9730 nM,,,CCOC(=O)NC1Cc2ccc(NC(=O)c3cccc(OC)c3-c3ccc(C(F)(F)F)cc3)cc2C1 (centres unmarked) [Example 83]
1510 nM,,9030 nM,,,CCOC(=O)N[C@H]1Cc2ccc(NC(=O)c3cccc(C)c3-c3ccc(C(F)(F)F)cc3)cc2C1 [Example 82]
2070 nM,,2580 nM,,,O=C(Nc1ccc2c(c1)CC(NS(=O)(=O)NC1CCCCC1)C2)c1ccccc1-c1ccc(C(F)(F)F)cc1 (centres unmarked) [Example 87]
1480 nM,,,,,O=C(Nc1ccc2c(c1)CC(NS(=O)(=O)c1ccccc1)C2)c1ccccc1-c1ccc(Cl)cc1 (centres unmarked) [Example 96]
3270 nM,,,,,Cc1cccc(C(=O)Nc2ccc3c(c2)C[C@H](NC(=O)c2ccno2)C3)c1-c1ccc(C(F)(F)F)cc1 [Example 80]
904 nM,,14100 nM,,,Cc1cccc(C(=O)Nc2ccc3c(c2)C[C@@H](NS(=O)(=O)c2ccccn2)C3)c1-c1ccc(C(F)(F)F)cc1 [Example 101]
1330 nM,,,,,CCOC(=O)NC1Cc2ccc(NC(=O)c3ccccc3-c3ccc(C(F)(F)F)cc3)cc2C1 (centres unmarked) [Example 81]
772 nM,,1250 nM,,,Cc1cccc(C(=O)Nc2ccc3c(c2)CC(NC(=O)c2ccccc2)C3)c1-c1ccc(C(F)(F)F)cc1 (centres unmarked) [Example 76]
1410 nM,,12400 nM,,,CN(C)CC(=O)NC1Cc2ccc(NC(=O)c3ccccc3-c3ccc(C(F)(F)F)cc3)cc2C1 (centres unmarked) [Example 77]
1330 nM,,,,,COc1cccc(C(=O)Nc2ccc3c(c2)CC(NC(=O)c2ccccc2)C3)c1-c1ccc(C(F)(F)F)cc1 (centres unmarked) [Example 79]
59 nM,,16300 nM,,,O=C(Nc1ccc2c(c1)CC(NS(=O)(=O)c1cccs1)C2)c1cccc(F)c1-c1ccc(C(F)(F)F)cc1 (centres unmarked) [Example 91]
202 nM,,,,,O=C(Nc1ccc2c(c1)C[C@H](NS(=O)(=O)c1ccccc1)C2)c1ccccc1-c1ccc(C(F)(F)F)cc1 [Example 89]
1050 nM,,,,,O=C(Nc1ccc2c(c1)CC(NS(=O)(=O)c1ccc(F)cc1)C2)c1ccccc1-c1ccc(C(F)(F)F)cc1 (centres unmarked) [Example 99]
